Data as given in patent US20140039047A1, “METHODS FOR REGULATING SIRTUIN GENE EXPRESSION” (priority 2011, published 2014).

Assays:
Test in all cases: Quantitative PCR of sirtuin gene expression in canine adipocytes treated with Equol
Type in all cases: cell-based
Settings in all cases: 24 hours, terminally differentiated canine adipocytes, normalized to cyclophilin A (PPIA), n=3
SIRT1 = test system: SIRT1
Description: (§1) Treatment: Terminally differentiated canine adipocytes were exposed to 200, 25, and 0 uM Equol for 24 hours. Cells were collected for RNA isolation.
(§2) RNA Isolation: Treatment cell samples were vortexed and homogenized using a Quiashredder (Qiagen, Valencia, Calif.) column according to manufacturer's directions. The homogenized lysate was collected and 1 equal volume of 64% ethanol was added to it. This mixture was then applied to an RNAqueous™ filter cartridge, (Ambion Inc., Austin, Tex.) 700 uL at a time, and centrifuged for one minute at 10,000 rpm. The cartridge was washed using 700 uL wash solution #1 and 500 uL wash solution #⅔ with centrifugation at 10,000 rpm for one minute for each wash. The filter cartridge was dried by centrifugation (10,000 rpm) for one minute. RNA was eluted three times by centrifugation (as above) using 30 uL aliquots of 70-80° C. elution solution. The resulting RNA was DNAse-treated and quantitated in a Beckman DU 640B spectrophotometer (Beckman Coulter, Inc., Brea, Calif.) at 260 nm. Additionally, quantity and quality were assessed using a bioanalyzer (Agilent, Santa Clara, Calif.) according to manufacturer's directions.
(§3) Quantitative PCR: All samples were run singularly against each primer/probe set to determine what standard curve(s) should be used. Standard curves were generated using serial dilutions of RNA from experimental samples with the lowest CT (cycle threshold) for a given target. 1-2 samples were re-reverse transcribed and a 1:5 serial dilution were used as the standard curve for a given target. Targets run included sirtuin −1, −2, −3 and −6. Values were normalized to cyclophilin A (PPIA) levels as determined by quantitative PCR. Inductions were calculated from each of the lowest sample's normalized value. Each set was run with n=3.

SIRT2 = test system: SIRT2
Description: as §1, §2, §3

SIRT3 = test system: SIRT3
Description: as §1, §2, §3

SIRT6 = test system: SIRT6
Description: as §1, §2, §3

Oc1ccc([C@H]2COc3cc(O)ccc3C2)cc1 [Equol]
Expression of SIRT1 gene (relative expression) (SIRT1; 25 uM Equol): 1.17
Expression of SIRT1 gene (relative expression) (SIRT1; 200 uM Equol): 1.80
Expression of SIRT2 gene (relative expression) (SIRT2; 25 uM Equol): 1.22
Expression of SIRT2 gene (relative expression) (SIRT2; 200 uM Equol): 2.37
Expression of SIRT3 gene (relative expression) (SIRT3; 25 uM Equol): 10.86
Expression of SIRT3 gene (relative expression) (SIRT3; 200 uM Equol): 17.21
Expression of SIRT6 gene (relative expression) (SIRT6; 25 uM Equol): 1.10
Expression of SIRT6 gene (relative expression) (SIRT6; 200 uM Equol): 1.23
